Experimental data reported in patent US20250326708A1, “LONG-ACTING SPLEEN-TARGETING CATIONIC LIPID COMPOUND COMPRISING BENZENE RING STRUCTURE, COMPOSITION COMPRISING SAME, AND USE THEREOF” (Beijing Youcarekechuang Pharmaceutical Technology Co., Ltd., priority 2024, published 2025).

Columns and labels:
293T cells [1] = experiment: Fluorescence detection of Fluc-mRNA (transfection efficiency) of LNP preparations; assay type: cell-based; conditions: for Relative light unit (RLU): LNP with 0.3 μg Fluc-mRNA, 96-well plate, 24 hours
Protocol: (§1) Cell recovery and passage: 293T cells were recovered and cultured in culture dishes. The cells were passaged until the required number of cells was obtained.
(§2) Seeding plates: The cells in culture dishes were digested and counted, then seeded in a 96-well plate at 10,000 cells per well and seeded in a 12-well plate at 150,000 cells per well. The cells were cultured overnight until cell adhesion.
(§3) The cationic lipids listed in Table 2 were each mixed with DSPC (AVT (Shanghai) Pharmaceutical Technology Co., Ltd.), cholesterol (AVT (Shanghai) Pharmaceutical Technology Co., Ltd.), and DMG-PEG2000 in a molar ratio of 49:10:39.5:1.5 and dissolved in ethanol to prepare ethanol lipid solutions. Using the ethanol injection method, the ethanol lipid solutions were quickly added to a citrate buffer (pH between 4 and 5), and vortexed for 30 seconds for later use. eGFP-mRNA (purchased from Shanghai BioHub Biotechnology Co., Ltd.), Fluc-mRNA (purchased from Shanghai BioHub Biotechnology Co., Ltd.), or Cy5 fluorescently labeled Leqvio (purchased from Sangon Biotech (Shanghai) Co., Ltd.) was diluted in a citrate buffer (pH between 4 and 5) to obtain an mRNA aqueous solution. A certain volume of the lipid solution and the mRNA aqueous solution were mixed to prepare liposomes at a total lipid-to-mRNA weight ratio of 15:1. The mixtures were sonicated at 25° C. for 15 minutes (ultrasonic frequency: 40 kHz, ultrasonic power: 800 W). The resulting liposomes were diluted 10-fold with PBS, followed by ultrafiltration using a 300 kDa ultrafiltration tube to remove ethanol. After adjusting the volume with PBS, LNP preparations encapsulating eGFP-mRNA or Fluc-mRNA were obtained, using cationic lipids, DSPC, cholesterol, and DMG-PEG2000 at a molar ratio of 49:10:39.5:1.5.
(§4) Cell recovery and passage: The method was the same as described in Example 3.
(§5) Seeding plates: The method was the same as described in Example 3.
LNP preparations containing 0.3 μg of Fluc-mRNA (with the vector components of the LNP preparations of cationic lipids, DSPC, cholesterol, and DMG-PEG2000 in a molar ratio of 49:10:39.5:1.5, where the cationic lipids are those listed in Table 1) were added to the cell culture medium in a 96-well plate. After 24 hours of continued culture, the corresponding reagents were added according to the instructions in the Gaussia Luciferase Assay Kit. Fluorescence intensity in each well was detected using the IVIS fluorescence detection system. The transfection efficiency of LNP preparations prepared with a series of cationic lipid compounds designed in the present disclosure, as well as cationic lipids from the prior art, including SM-102, HHMA, MC3, compound 7, and I-1, is shown in Table 4.

293T cells [2] = experiment: Cell viability assay (CCK-8) with LNP preparations of Fluc-mRNA; assay type: cell-based; conditions: LNP with 1.5 μg Fluc-mRNA, 24 hours, CCK-8
Protocol: as §1, §2, §3, §4, §5
LNP preparations containing 1.5 μg of Fluc-mRNA (with the vector components of the LNP preparations of cationic lipids, DSPC, cholesterol, and DMG-PEG2000 in a molar ratio of 49:10:39.5:1.5, where the cationic lipids are those listed in Table 1) were added to the cell culture medium in a 96-well plate. After 24 hours of continued culture, 10 μL of CCK-8 solution was added to each well, and the culture plate was incubated in an incubator for 1 hour.

female BALB/C mice [3] = experiment: Expression of delivered mRNA in mice in vivo (IVIS in vivo imaging); conditions: 10 μg Fluc-mRNA via tail vein
Protocol: LNP preparations containing 10 μg of Fluc-mRNA were injected via the tail vein into female BALB/C mice (4 to 6 weeks old, weighing 17 to 19 g). At specified time points after administration (6 h, 24 h, 48 h, and 7 d), the mice were intraperitoneally injected with fluorescent imaging substrates and allowed to move freely for 5 minutes. The average radiation intensity (corresponding to fluorescence intensity) of proteins expressed by the mRNA delivered by the LNP preparations in the mice in vivo was then detected using the IVIS Spectrum small-animal in vivo imaging system.

[4] = Particle size and polydispersity index (PDI) of lipid nanoparticles, dynamic light scattering; assay type: physicochemical; conditions: LNP preparation with the named cationic lipid; 90° scattering angle, 25° C
Description: as §3
The particle size and polydispersity index (PDI) were measured using dynamic light scattering with a Malvern laser diffraction particle size analyzer.
10 μL of liposome solution was diluted to 1 mL with RNase-free deionized water and added to the sample cell. Each sample was measured three times. The measurement conditions were as follows: 90° scattering angle, 25° C.

female BALB/C mice [5] = experiment: Expression of delivered mRNA in different organs of mice (organ imaging); assay type: in vivo
Protocol: LNP preparations containing 5 μg of Fluc-mRNA were subcutaneously injected into female BALB/C mice (4 to 6 weeks old, weighing 17 to 19 g). At specified time points after administration (6 h), the mice were intraperitoneally injected with fluorescent imaging substrates and allowed to move freely for 5 minutes. The average radiation intensity (corresponding to fluorescence intensity) of proteins expressed by the mRNA delivered by the LNP preparations in the mice in vivo was then detected using the IVIS Spectrum small-animal in vivo imaging system. After sampling, the mice were killed by cervical dislocation and dissected, and the internal organs: heart, liver, spleen, lung, kidney, and lymph of mice were accurately isolated. The average radiation intensity (corresponding to fluorescence intensity) of proteins expressed by the mRNA delivered by the LNP preparations in various organs of mice was then detected using the IVIS Spectrum small-animal in vivo imaging system.

[6] = 6 hours after 5 μg Fluc-mRNA subcutaneously

CCCCCCCCC(CCCCCC)COC(=O)CCCCCN(CCCCCC(=O)OCC(CCCCCC)CCCCCCCC)CCN(CCO)c1ccccc1 (centres unmarked) [Compound 7, bis(2-hexyldecyl) 6,6′-((2-((2-hydroxyethyl) (phenyl)amino)ethyl)azanediyl)dihexanoate, reference compound]
Relative light unit (RLU) (293T cells [1]): 257490 RLU | Cell viability (293T cells [2]): 73% | Average radiation intensity, in vivo imaging (female BALB/C mice [3]; 6 h): 1847654 | Average radiation intensity, in vivo imaging (female BALB/C mice [3]; 24 h): 185473 | Average radiation intensity, in vivo imaging (female BALB/C mice [3]; 48 h): 96543 | Average radiation intensity, in vivo imaging (female BALB/C mice [3]; 7 d): 8511 | PDI [4]: 14.3% | Particle size [4]: 162 nm

CCCCCCCCCCCCC(O)CN(C)CCCCCC(=O)OCC(CCCCCC)CCCCCCCC (centres unmarked) [HHMA, reference compound]
Relative light unit (RLU) (293T cells [1]): 1011156 RLU | Cell viability (293T cells [2]): 77% | PDI [4]: 16.3% | Particle size [4]: 146 nm

CCCCCCCCC(CCCCCC)COC(=O)CCCCCN(CCCCCC(=O)OCC(CCCCCC)CCCCCCCC)CCCCC(=O)OCc1ccccc1.I (centres unmarked) [I-1, bis(2-hexyldecyl) 6,6′-((5-(benzyloxy)-5-oxopentyl)azanediyl)dihexanoate, reference compound]
Relative light unit (RLU) (293T cells [1]): 202730 RLU | Cell viability (293T cells [2]): 68% | PDI [4]: 16.2% | Particle size [4]: 158 nm

CCCCC/C=C\C/C=C\CCCCCCCCC(CCCCCCCC/C=C\C/C=C\CCCCC)OC(=O)CCCN(C)C [MC3, reference compound]
Relative light unit (RLU) (293T cells [1]): 94904 RLU | Cell viability (293T cells [2]): 74% | PDI [4]: 15.7% | Particle size [4]: 151 nm

CCCCCCCCCCCOC(=O)CCCCCN(CCO)CCCCCCCC(=O)OC(CCCCCCCC)CCCCCCCC [SM-102, reference compound]
Relative light unit (RLU) (293T cells [1]): 1428141 RLU | Cell viability (293T cells [2]): 82% | Average radiation intensity, in vivo imaging (female BALB/C mice [3]; 6 h): 2144435 | Average radiation intensity, in vivo imaging (female BALB/C mice [3]; 24 h): 314533 | Average radiation intensity, in vivo imaging (female BALB/C mice [3]; 48 h): 134554 | Average radiation intensity, in vivo imaging (female BALB/C mice [3]; 7 d): 9243 | PDI [4]: 13.5% | Particle size [4]: 145 nm | Average radiation intensity of mouse organs: Heart (female BALB/C mice [5]; [6]): 0 | Average radiation intensity of mouse organs: Kidney (female BALB/C mice [5]; [6]): 0 | Average radiation intensity of mouse organs: Liver (female BALB/C mice [5]; [6]): 24365 | Average radiation intensity of mouse organs: Lung (female BALB/C mice [5]; [6]): 0 | Average radiation intensity of mouse organs: Lymph (female BALB/C mice [5]; [6]): 0 | Average radiation intensity of mouse organs: Spleen (female BALB/C mice [5]; [6]): 25547 | Expression level in the liver, times that of YK-908 (female BALB/C mice [5]; liver, 6 h, vs YK-908): 17.12 times | Expression level in the liver, times that of YK-909 (female BALB/C mice [5]; liver, 6 h, vs YK-909): 2.67 times | Expression level in the liver, times that of YK-910 (female BALB/C mice [5]; liver, 6 h, vs YK-910): 2.13 times

CCCCCCCCCCC(CCCCCCCCCC)CCCOC(=O)CCCCCNC(CO)(CO)CCc1ccc(CCCCCCCC)cc1 [YK-901, 4-decyltetradecyl 6-((1-hydroxy-2-(hydroxymethyl)-4-(4-octylphenyl)butan-2-yl)amino) hexanoate]
Relative light unit (RLU) (293T cells [1]): 43423 RLU | Cell viability (293T cells [2]): 58% | PDI [4]: 17.4% | Particle size [4]: 162 nm

CCCCCCCCCCC(CCCCCCCCCC)CCCOC(=O)CCCNC(CO)(CO)CCc1ccc(CCCCCCCC)cc1 [YK-902, 4-decyltetradecyl 4-((1-hydroxy-2-(hydroxymethyl)-4-(4-octylphenyl)butan-2-yl)amino) butanoate]
Cellular transfection efficiency, times that of HHMA (293T cells [1]; Fluc-mRNA LNP, vs HHMA): 0.31 times | Cellular transfection efficiency, times that of I-1 (293T cells [1]; Fluc-mRNA LNP, vs I-1): 1.53 times | Cellular transfection efficiency, times that of MC3 (293T cells [1]; Fluc-mRNA LNP, vs MC3): 3.28 times | Cellular transfection efficiency, times that of SM-102 (293T cells [1]; Fluc-mRNA LNP, vs SM-102): 0.22 times | Cellular transfection efficiency, times that of YK-501 (293T cells [1]; Fluc-mRNA LNP, vs YK-501): 6.73 times | Cellular transfection efficiency, times that of YK-506 (293T cells [1]; Fluc-mRNA LNP, vs YK-506): 0.48 times | Cellular transfection efficiency, times that of compound 7 (293T cells [1]; Fluc-mRNA LNP, vs compound 7): 1.21 times | Relative light unit (RLU) (293T cells [1]): 311132 RLU | Cell viability (293T cells [2]): 36% | PDI [4]: 12.4% | Particle size [4]: 142 nm

CCCCCCCCCCOC(=O)CCCNC(CO)(CO)CCc1ccc(CCCCCCCC)cc1 [YK-903, decyl 4-((1-hydroxy-2-(hydroxymethyl)-4-(4-octylphenyl)butan-2-yl)amino) butanoate]
Relative light unit (RLU) (293T cells [1]): 25006 RLU | Cell viability (293T cells [2]): 47% | PDI [4]: 15.1% | Particle size [4]: 152 nm

CCCCCCCCCCCOC(=O)CCCCCCNC(CO)(CO)CCc1ccc(CCCCCCCC)cc1 [YK-904, undecyl 7-((1-hydroxy-2-(hydroxymethyl)-4-(4-octylphenyl)butan-2-yl)amino) heptanoate]
Relative light unit (RLU) (293T cells [1]): 125048 RLU | Cell viability (293T cells [2]): 52% | Average radiation intensity, in vivo imaging (female BALB/C mice [3]; 6 h): 1116384 | Average radiation intensity, in vivo imaging (female BALB/C mice [3]; 24 h): 115355 | Average radiation intensity, in vivo imaging (female BALB/C mice [3]; 48 h): 28552 | Average radiation intensity, in vivo imaging (female BALB/C mice [3]; 7 d): 3243 | PDI [4]: 8.2% | Particle size [4]: 112 nm

CCCCCCCCCCCOC(=O)CCCCCNC(CO)(CO)CCc1ccc(CCCCCCCC)cc1 [YK-905, undecyl 6-((1-hydroxy-2-(hydroxymethyl)-4-(4-octylphenyl)butan-2-yl)amino) hexanoate]
Relative light unit (RLU) (293T cells [1]): 72425 RLU | Cell viability (293T cells [2]): 51% | PDI [4]: 16.9% | Particle size [4]: 135 nm

CCCCCCCCCCOC(=O)CCCN(CCCCCC(=O)OCC(CCCCCCCC)CCCCCCCC)CCNC(CO)(CO)CCc1ccc(CCCCCCCC)cc1 [YK-906, 2-octyldecyl 6-((4-(decyloxy)-4-oxobutyl) (2-((1-hydroxy-2-(hydroxymethyl)-4-(4-octylphenyl)butan-2-yl)amino)ethyl)amino) hexanoate]
Relative light unit (RLU) (293T cells [1]): 27546 RLU | Cell viability (293T cells [2]): 63% | PDI [4]: 10.2% | Particle size [4]: 124 nm

CCCCCCCCCCCCCCNC(=O)CCCCCNC(CO)(CO)CCc1ccc(CCCCCCCC)cc1 [YK-907, 6-((1-hydroxy-2-(hydroxymethyl)-4-(4-octylphenyl)butan-2-yl)amino)-N-tetradecylhexanamide]
Relative light unit (RLU) (293T cells [1]): 37699 RLU | Cell viability (293T cells [2]): 73% | PDI [4]: 16.2% | Particle size [4]: 159 nm

CCCCCCCCc1ccc(CCC(CO)(CO)NCCCCCCC(=O)OCC(CCCCCCCC)CCCCCCCC)cc1 [YK-911, 2-octyldecyl 7-((1-hydroxy-2-(hydroxymethyl)-4-(4-octylphenyl)butan-2-yl)amino) heptanoate]
Relative light unit (RLU) (293T cells [1]): 1299055 RLU | Cell viability (293T cells [2]): 62% | PDI [4]: 10.4% | Particle size [4]: 136 nm
